# Source: PubChem BioAssay AID588647 (Sanford-Burnham Center for Chemical Genomics, 2011)
# Several values for one entry are separate records, joined by “and”; a condition that tells them apart may be missing. Identical values can stand only once. Activity calls are given as the source filed them. No rule for the calls is given here.
# Target: intestinal alkaline phosphatase (Mus musculus)
# Experiment: mouse IAP inhibition by analogs – biochemical, luminescence, set 2, SAR follow-up (AID 588647)
# Conditions: purified mouse IAP, luminescent substrate read-out
row,IC50,Structure (SMILES)
1,7.7 µM,O=C(CCNS(=O)(=O)c1ccc2[nH]c(=O)oc2c1)NCc1ccc(O)c(O)c1
2,81 µM,O=C(CCNS(=O)(=O)c1ccc2[nH]c(=O)oc2c1)NCc1ccccc1
3,40 µM,COc1cccc(CNS(=O)(=O)c2ccc3[nH]c(=O)oc3c2)c1
4,9.66 µM,O=C(N/N=C/c1ccc(Cl)c(Cl)c1)c1cc(O)c(O)c(O)c1
5,2 µM,N#Cc1cccc(CNC(=O)CCNS(=O)(=O)c2ccc3[nH]c(=O)oc3c2)c1
6,1.5 µM,COc1ccc(CCNC(=O)CCCNS(=O)(=O)c2ccc3[nH]c(=O)oc3c2)cc1OC
7,2 µM and 5.4 µM,COc1ccccc1CNC(=O)CCCNS(=O)(=O)c1ccc2[nH]c(=O)oc2c1
8,11.1 µM,O=C(N/N=C/c1c(Cl)cccc1Cl)c1cc(O)c(O)c(O)c1
9,> 100 µM (inactive),CCOc1cc(C(=O)N/N=C/c2ccccc2F)cc(OCC)c1OCC
10,> 100 µM (inactive),O=C(CCNS(=O)(=O)c1ccc2c(c1)CCC2)NCCc1ccc2c(c1)OCO2

# Further lines, the compound ahead of its results:
row,Structure (SMILES),IC50
1,O=C(N/N=C/c1c(F)cccc1Cl)c1cc(O)c(O)c(O)c1,8.02 µM
2,O=C(CCNS(=O)(=O)c1ccc2[nH]c(=O)oc2c1)NCc1cccc(F)c1,> 100 µM (inactive)
3,O=C(N/N=C/c1c(F)cccc1F)c1ccc(O)cc1,> 100 µM (inactive)
4,O=C(N/N=C/c1ccccc1F)c1ccc(O)cc1O,> 100 µM (inactive)
5,Cc1ccc(C)c(NC(=O)CCNS(=O)(=O)c2ccc3[nH]c(=O)oc3c2)c1,0.4 µM
6,O=C(CCCNS(=O)(=O)c1ccc2[nH]c(=O)oc2c1)NCc1cccc(F)c1,2.8 µM and 13 µM
7,COc1ccc(NS(=O)(=O)c2ccc3[nH]c(=O)oc3c2)cc1OC,> 100 µM (inactive)
8,CC(C)c1ccc(NC(=O)CCNS(=O)(=O)c2ccc3c(c2)oc(=O)n3C)cc1,> 100 µM (inactive)
9,Cc1ccccc1CNC(=O)C1CCCN(S(=O)(=O)c2ccc3[nH]c(=O)oc3c2)C1 (stereo not given),> 100 µM (inactive)
10,CC(=NNC(=O)c1ccccc1OCCOc1ccccc1)c1ccccc1F,> 100 µM (inactive)
